Experimental data from patent US4931435A, “Agent with an antidepressant activity” (Boehringer Ingelheim KG, priority 1987, dated 1990).

Legend:
[1] = tested on: ptosis induced by tetrabenazine; test: Inhibition of ptosis induced by tetrabenazine in the mouse; format: in vivo; conditions: Control without tetrabenazine = 100%
[2] = tested on: isolated chicks; test: chick call test: distress call activation in isolated one day old chicks (antidepressant activity); format: in vivo; conditions: Placebo = 100%
Description: The call frequency of isolated one day old chicks, which decreases in the course of the test, is used as an experimental behavioral model of manifestations of resignation in depression, The method has been validated by tests on numerous neurotropically active substances; it is distinguished by its highly reproducible selectivity for antidepressants which are capable of reactivating the decreased call rate as a function of dosage. [distress call activation in isolated chicks; A new behavioral model for antidepressants, E. Lehr, Psychopharmacol. 89. […] Neurol. Psychiat.

[3] = tested on: Albino mice of the Chbb: NMRI strain; conditions: group 1 (m and f), i.v., mouse, dosage 100
Description: Albino mice of the Chbb: NMRI strain
A 2% solution of 1-benzyl-4-aminomethyl-pyrrolidin-2-one fumarate and a 0.25% imipramin solution (pH=6.2) were used.

[4] = tested on: mice; conditions: mouse, in vivo
Procedure: The test substances were dissolved in 0.9% NaCl solution.
**The animals in Group 2 were treated first with
1benzyl-4-aminomethyl-pyrrolidin-2-one FU and immediately afterwards
(about 10 to 15 seconds later) with imipramin.

SMILES	Inhibition of ptosis induced by tetrabenazine ([1]; 3 mg/kg p.o.)	Increase in call rate in the second hour ([2]; 10 mg/kg i.p.)	Inhibition of ptosis induced by tetrabenazine ([1]; 3.5 mg/kg p.o.)	Lethality dead/treated animals [3]	Increase in call rate in the second hour ([2]; 5 mg/kg i.p.)	effect of pretreatment on the toxic effect of imipramin [4]
CN(C)CCCN1c2ccccc2CCc2ccccc21 [Compound A, 10,11-dihydro-N,N-dimethyl-5H-dibenz[b,f]-azepin-5-propanamine, reference compound]	12%	131%				
NCC1CC(=O)N(Cc2ccccc2)C1 (stereo not drawn) [Compound B, 1-benzyl-4-aminomethyl-pyrrolidin-2-one]			48%	0/10	284%	toxic effect of imipramin is reduced
